Test results: US9890133B2 (priority 2011, dated 2018)
Converted amounts (≈) assume the structure as drawn.

Assay: in vitro
Details: human

Structure (SMILES) | CC50 [µg/mL] | CC50 (Picorana CC50) [µg/mL]
CC(C)c1ccc2c(c1)OC1(O)c3ccccc3C(=O)C21NC(=O)[C@@H](C)NC(=O)OC(C)(C)C (stereo partly drawn) [Example 184, tert-Butyl(2R)-1-(4b-hydroxy-7-isopropyl-10-oxo-9b,10-dihydro-4bH-benzo[d]indeno[1,2-b]furan-9b-ylamino)-1-oxopropan-2-ylcarbamate] | > 10 | 36.4 (≈ 78 µM)
CC(C)c1ccc2c(c1)OC1(O)c3ccccc3C(=O)C21NC(=O)[C@@H](Cc1ccccc1)NC(=O)OC(C)(C)C (stereo partly drawn) [Example 185, tert-Butyl(2R)-1-(4b-hydroxy-7-isopropyl-10-oxo-9b,10-dihydro-4bH-benzo[d]indeno[1,2-b]furan-9b-ylamino)-1-oxo-3-phenylpropan-2-ylcarbamate] | > 10 | 7.18 (≈ 13.2 µM)
CC(C)c1ccc2c(c1)OC1(O)c3cccc(N)c3C(=O)C21NC(=O)c1c(Cl)cc(Cl)cc1Cl (stereo not shown) [Example 192, N-(1-Amino-4b-hydroxy-7-isopropyl-10-oxo-9b,10-dihydro-4bH-indeno[1,2-b]benzofuran-9b-yl)-2,4,6-trichlorobenzamide] | > 10 | 
CC(C)c1ccc2c(c1)OC1(O)c3cccc(N)c3C(=O)C21NC(=O)CCl (stereo not shown) [Example 194, N-(1-Amino-4b-hydroxy-7-isopropyl-10-oxo-9b,10-dihydro-4bH-benzo[d]indeno[1,2-b]furan-9b-yl)-2-chloroacetamide] | > 10 | 
CCCCc1cn(C23C(=O)c4c(N)cccc4C2(O)Oc2cc(C(C)C)ccc23)nn1 (stereo not shown) [Example 196, 1-amino-9b-(4-butyl-1H-1,2,3-triazol-1-yl)-4b-hydroxy-7-isopropyl-4bH-indeno[1,2-b]benzofuran-10(9bH)-one] | 16.2 (≈ 38.7 µM) | 48.5 (≈ 116 µM)
CC(C)c1ccc2c(c1)OC1(O)c3cccc(N)c3C(=O)C21NC(=O)c1cccc2cccnc12 (stereo not shown) [Example 202, N-(1-Amino-4b-hydroxy-7-isopropyl-10-oxo-9b,10-dihydro-4bH-indeno[1,2-b]benzofuran-9b-yl)quinoline-8-carboxamide] | 3.24 (≈ 6.96 µM) | 9.6 (≈ 20.6 µM)
CC(C)c1ccc2c(c1)OC1(O)c3ccccc3C(=O)C21NC(=O)c1cc2ccccc2[nH]1 (stereo not shown) [Example 208, N-(4b-hydroxy-7-isopropyl-10-oxo-9b,10-dihydro-4bH-indeno[1,2-b]benzofuran-9b-yl)-1H-indole-2-carboxamide] | > 10 | 
CC(C)c1ccc2c(c1)OC1(O)c3ccccc3C(=O)C21NC(=O)c1cnn(-c2ccccc2)c1C(F)(F)F (stereo not shown) [Example 211] | > 10 | 
Cc1ccc(C(=O)NC23C(=O)c4c(N)cccc4C2(O)Oc2cc(C(C)C)ccc23)s1 (stereo not shown) [Example 216, N-(1-Amino-4b-hydroxy-7-isopropyl-10-oxo-9b,10-dihydro-4bH-indeno[1,2-b]benzofuran-9b-yl)-5-methylthiophene-2-carboxamide] | 9.69 (≈ 22.3 µM) | 4.75 (≈ 10.9 µM)
CC(C)c1ccc2c(c1)OC1(O)c3ccccc3C(=O)C21NC(=O)c1ccccn1 (stereo not shown) [Example 218, N-(4b-Hydroxy-7-isopropyl-10-oxo-9b,10-dihydro-4bH-indeno[1,2-b]benzofuran-9b-yl)picolinamide] | > 10 | 8.49 (≈ 21.2 µM)
CC(C)c1ccc2c(c1)OC1(O)c3ccccc3C(=O)C21NC(=O)c1ccncn1 (stereo not shown) [Example 219, N-(4b-Hydroxy-7-isopropyl-10-oxo-9b,10-dihydro-4bH-indeno[1,2-b]benzofuran-9b-yl)pyrimidine-4-carboxamide] | > 10 | 45.1 (≈ 112 µM)
CC(C)c1ccc2c(c1)OC1(O)c3ccccc3C(=O)C21NC(=O)Cc1nnn[nH]1 (stereo not shown) [Example 220, N-(4b-Hydroxy-7-isopropyl-10-oxo-9b,10-dihydro-4bH-benzo[d]indeno[1,2-b]furan-9b-yl)-2-(1H-tetrazol-5-yl)acetamide] | > 10 | > 50
CC(C)c1ccc2c(c1)OC1(O)c3ccccc3C(=O)C21NC(=O)c1nc[nH]n1 (stereo not shown) [Example 222, N-(4b-Hydroxy-7-isopropyl-10-oxo-9b,10-dihydro-4bH-benzo[d]indeno[1,2-b]furan-9b-yl)-1H-1,2,4-triazole-3-carboxamide] | > 10 | 39.4 (≈ 101 µM)
CC(C)c1ccc2c(c1)OC1(O)c3ccccc3C(=O)C21NC(=O)c1cc(=O)[nH]c(=O)[nH]1 (stereo not shown) [Example 224, N-(4b-Hydroxy-7-isopropyl-10-oxo-9b,10-dihydro-4bH-benzo[d]indeno[1,2-b]furan-9b-yl)-2,6-dioxo-1,2,3,6-tetrahydropyrimidine-4-carboxamide] | > 10 | > 50
CC(C)c1ccc2c(c1)OC1(O)c3ccccc3C(=O)C21NC(=O)c1cc2ccccc2oc1=O (stereo not shown) [Example 225, N-(4b-hydroxy-7-isopropyl-10-oxo-9b,10-dihydro-4bH-benzo[d]indeno[1,2-b]furan-9b-yl)-2-oxo-2H-chromene-3-carboxamide] | > 10 | 22.9 (≈ 48.9 µM)
CC(C)c1ccc2c(c1)OC1(O)c3ccccc3C(=O)C21NC(=O)c1ccc(=O)oc1 (stereo not shown) [Example 226, N-(4b-Hydroxy-7-isopropyl-10-oxo-9b,10-dihydro-4bH-benzo[d]indeno[1,2-b]furan-9b-yl)-2-oxo-2H-pyrane-5-carboxamide] | > 10 | 28.2 (≈ 67.5 µM)

Structure (SMILES) | CC50 [µg/mL] | CC50 (Picorana CC50) [µg/mL]
CC(C)c1ccc2c(c1)OC1(O)c3ccccc3C(=O)C21NC(=O)c1nc2ccccc2[nH]1 (stereo not shown) [Example 227, N-(4b-hydroxy-7-isopropyl-10-oxo-9b,10-dihydro-4bH-benzo[d]indeno[1,2-b]furan-9b-yl)-1H-benzo[d]imidazole-2-carboxamide] | > 10 | 9.62 (≈ 21.9 µM)
Cc1onc(-c2c(F)cccc2Cl)c1C(=O)NC12C(=O)c3c(N)cccc3C1(O)Oc1cc(C(C)C)ccc12 (stereo not shown) [Example 228, N-(1-Amino-4b-hydroxy-7-isopropyl-10-oxo-9b,10-dihydro-4bH-indeno[1,2-b]benzofuran-9b-yl)-3-(2-chloro-6-fluorophenyl)-5-methylisooxazole-4-carboxamide] | > 10 | 24.1 (≈ 43.9 µM)
CC(C)c1ccc2c(c1)OC1(O)c3ccccc3C(=O)C21NC(=O)c1cc(-c2ccccc2)n[nH]1 (stereo not shown) [Example 229, N-(4b-hydroxy-7-isopropyl-10-oxo-9b,10-dihydro-4bH-indeno[1,2-b]benzofuran-9b-yl)-3-phenyl-1H-pyrazole-5-carboxamide] | 4.51 (≈ 9.69 µM) | 8.63 (≈ 18.5 µM)
CC(C)c1ccc2c(c1)OC1(O)c3ccccc3C(=O)C21NC(=O)c1cccnc1 (stereo not shown) [Example 230, N-(4b-Hydroxy-7-isopropyl-10-oxo-9b,10-dihydro-4bH-indeno[1,2-b]benzofuran-9b-yl)nicotinamide] | > 10 | 42.8 (≈ 107 µM)
CC(C)c1ccc2c(c1)OC1(O)c3cccc(N)c3C(=O)C21NC(=O)c1ccc(N)o1 (stereo not shown) [Example 232, 5-amino-N-(1-amino-4b-hydroxy-7-isopropyl-10-oxo-9b,10-dihydro-4bH-indeno[1,2-b]benzofuran-9b-yl)furane-2-carboxamide] | > 10 | > 50
Cc1onc(-c2c(Cl)cccc2Cl)c1C(=O)NC12C(=O)c3ccccc3C1(O)Oc1cc(C(C)C)ccc12 (stereo not shown) [Example 236, 3-(2,6-dichlorophenyl)-N-(4b-hydroxy-7-isopropyl-10-oxo-9b,10-dihydro-4bH-benzo[d]indeno[1,2-b]furan-9b-yl)-5-methylisooxazole-4-carboxamide] | > 10 | 21.4 (≈ 38.9 µM)
CC(C)c1ccc2c(c1)OC1(O)c3cccc(N)c3C(=O)C21NC(=O)C1c2ccccc2Oc2ccccc21 (stereo not shown) [Example 237, N-(1-Amino-4b-hydroxy-7-isopropyl-10-oxo-9b,10-dihydro-4bH-benzo[d]indeno[1,2-b]furan-9b-yl)-9H-xanthene-9-carboxamide] | > 10 | 6.27 (≈ 12.1 µM)
CC(C)c1ccc2c(c1)OC1(O)c3ccccc3C(=O)C21NC(=O)c1cnnc2ccccc12 (stereo not shown) [Example 239, N-(4b-hydroxy-7-isopropyl-10-oxo-9b,10-dihydro-4bH-benzo[d]indeno[1,2-b]furan-9b-yl)cinnoline-4-carboxamide] | > 10 | > 50
CC(C)c1ccc2c(c1)OC1(O)c3cccc(N)c3C(=O)C21NC(=O)c1c2ccccc2nc2ccccc12 (stereo not shown) [Example 241, N-(1-Amino-4b-hydroxy-7-isopropyl-10-oxo-9b,10-dihydro-4bH-benzo[d]indeno[1,2-b]furan-9b-yl)acridine-9-carboxamide] | > 10 | 7.86 (≈ 15.2 µM)
COc1cc(C(=O)NC23C(=O)c4c(N)cccc4C2(O)Oc2cc(C(C)C)ccc23)nc2ccccc12 (stereo not shown) [Example 247, N-(1-Amino-4b-hydroxy-7-isopropyl-10-oxo-9b,10-dihydro-4bH-benzo[d]indeno[1,2-b]furan-9b-yl)-4-methoxyquinoline-2-carboxamide] | > 10 | 20 (≈ 40.4 µM)
CC(C)c1ccc2c(c1)OC1(O)c3cccc(N)c3C(=O)C21NC(=O)c1cnccc1Cl (stereo not shown) [Example 254, N-(1-Amino-4b-hydroxy-7-isopropyl-10-oxo-9b,10-dihydro-4bH-indeno[1,2-b]benzofuran-9b-yl)-4-chloronicotinamide] | > 10 | 
CC(C)c1ccc2c(c1)OC1(O)c3cccc(N)c3C(=O)C21NC(=O)c1sc2ccccc2c1Br (stereo not shown) [Example 264] | > 10 | 
COc1c(C(=O)NC23C(=O)c4c(N)cccc4C2(O)Oc2cc(C(C)C)ccc23)cnc2ccc(F)cc12 (stereo not shown) [Example 267, N-(1-Amino-4b-hydroxy-7-isopropyl-10-oxo-9b,10-dihydro-4bH-indeno[1,2-b]benzofuran-9b-yl)-6-fluoro-4-methoxyquinoline-3-carboxamide] | 0.86 (≈ 1.67 µM) | 0.87 (≈ 1.69 µM)
CC(C)c1ccc2c(c1)OC1(O)c3cccc(N)c3C(=O)C21NC(=O)c1sc2cc(F)ccc2c1Cl (stereo not shown) [Example 269, N-(1-Amino-4b-hydroxy-7-isopropyl-10-oxo-9b,10-dihydro-4bH-indeno[1,2-b]benzofuran-9b-yl)-3-chloro-6-fluorobenzo[b]thiophene-2-carboxamide] | > 10 | 
Cc1ccc2c(Cl)c(C(=O)NC34C(=O)c5c(N)cccc5C3(O)Oc3cc(C(C)C)ccc34)sc2c1 (stereo not shown) [Example 270, N-(1-Amino-4b-hydroxy-7-isopropyl-10-oxo-9b,10-dihydro-4bH-indeno[1,2-b]benzofuran-9b-yl)-3-chloro-6-methylbenzo[b]thiophene-2-carboxamide] | 5.93 (≈ 11.4 µM) | 6.57 (≈ 12.7 µM)
